Data on 9 molecules can be found in patent US11331299B2, “Medicinal use of serrulatane diterpenes” (The University of Sydney, priority 2016, dated 2022).

Usually pIC50 stands for the IC50 on a negative log10 scale, so that one unit is a factor of ten.

pIC50: −log10 of the molar value. Where a name gives a salt, the structure may show the parent alone. Read-outs that look alike come from different tables or passages of the source.

Assay [1] concerns the target T1, FALZ (h) bromodomain (Homo sapiens, UniProt Q12830).
T1 construct: Bromodomain; Eurofins CEREP (France), contract laboratory
The assay can be described thus: Epigenetic binding assay, Bromodomain. The note with it: Table 4; read-out: Reference IC50.

For assay [2], the target named is Lipid Peroxidase. The assay can be described thus: Lipid Peroxidase. It is filed as biochemical, Dunkin Hartley Guinea pig. As to conditions: concentration-response 10 to 0.01 μM.
Assay [3] addresses T2, ATAD2B (h) bromodomain (Homo sapiens, UniProt Q9ULI0).
T2 construct: ATAD2B bromodomain; host or cells: E. coli
T2 sequence (Q9ULI0 951-1066 limits assumed): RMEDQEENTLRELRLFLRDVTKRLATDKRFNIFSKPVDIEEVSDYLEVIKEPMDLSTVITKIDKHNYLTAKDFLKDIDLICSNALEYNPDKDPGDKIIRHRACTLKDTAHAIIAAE
The assay can be described thus: Epigenetic binding assay, Bromodomain. As to conditions: Table 4; read-out: Reference IC50.

Assay [4] addresses T3, PB1(4) (h) bromodomain (Homo sapiens, UniProt Q86U86).
T3 construct: Bromodomain
The assay can be described thus: Epigenetic binding assay, Bromodomain. As to conditions: Table 4; read-out: Reference IC50.

Assay [5] deals with T4, sirtuin 2 (h) (inhibitor effect) (Homo sapiens, UniProt Q8IXJ6).
T4 sequence (Q8IXJ6 1-389): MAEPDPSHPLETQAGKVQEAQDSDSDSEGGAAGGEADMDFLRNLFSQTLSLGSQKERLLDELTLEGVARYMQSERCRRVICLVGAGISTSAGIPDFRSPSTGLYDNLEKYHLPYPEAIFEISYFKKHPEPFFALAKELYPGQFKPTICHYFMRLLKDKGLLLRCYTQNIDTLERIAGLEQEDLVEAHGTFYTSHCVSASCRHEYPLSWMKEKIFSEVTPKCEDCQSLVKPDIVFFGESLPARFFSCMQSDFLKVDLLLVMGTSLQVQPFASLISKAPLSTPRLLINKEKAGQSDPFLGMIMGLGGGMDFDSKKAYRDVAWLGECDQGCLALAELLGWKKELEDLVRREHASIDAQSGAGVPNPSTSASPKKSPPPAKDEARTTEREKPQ
The assay can be described thus: Epigenetic enzyme assay, Sirtuins. The note with it: Table 10; read-out: Reference IC50. It is filed as biochemical.

Assay [6] addresses T5, NSD3/WHSC1L1 (h) (Homo sapiens, UniProt Q9BZ95).
T5 sequence (Q9BZ95 1-1437): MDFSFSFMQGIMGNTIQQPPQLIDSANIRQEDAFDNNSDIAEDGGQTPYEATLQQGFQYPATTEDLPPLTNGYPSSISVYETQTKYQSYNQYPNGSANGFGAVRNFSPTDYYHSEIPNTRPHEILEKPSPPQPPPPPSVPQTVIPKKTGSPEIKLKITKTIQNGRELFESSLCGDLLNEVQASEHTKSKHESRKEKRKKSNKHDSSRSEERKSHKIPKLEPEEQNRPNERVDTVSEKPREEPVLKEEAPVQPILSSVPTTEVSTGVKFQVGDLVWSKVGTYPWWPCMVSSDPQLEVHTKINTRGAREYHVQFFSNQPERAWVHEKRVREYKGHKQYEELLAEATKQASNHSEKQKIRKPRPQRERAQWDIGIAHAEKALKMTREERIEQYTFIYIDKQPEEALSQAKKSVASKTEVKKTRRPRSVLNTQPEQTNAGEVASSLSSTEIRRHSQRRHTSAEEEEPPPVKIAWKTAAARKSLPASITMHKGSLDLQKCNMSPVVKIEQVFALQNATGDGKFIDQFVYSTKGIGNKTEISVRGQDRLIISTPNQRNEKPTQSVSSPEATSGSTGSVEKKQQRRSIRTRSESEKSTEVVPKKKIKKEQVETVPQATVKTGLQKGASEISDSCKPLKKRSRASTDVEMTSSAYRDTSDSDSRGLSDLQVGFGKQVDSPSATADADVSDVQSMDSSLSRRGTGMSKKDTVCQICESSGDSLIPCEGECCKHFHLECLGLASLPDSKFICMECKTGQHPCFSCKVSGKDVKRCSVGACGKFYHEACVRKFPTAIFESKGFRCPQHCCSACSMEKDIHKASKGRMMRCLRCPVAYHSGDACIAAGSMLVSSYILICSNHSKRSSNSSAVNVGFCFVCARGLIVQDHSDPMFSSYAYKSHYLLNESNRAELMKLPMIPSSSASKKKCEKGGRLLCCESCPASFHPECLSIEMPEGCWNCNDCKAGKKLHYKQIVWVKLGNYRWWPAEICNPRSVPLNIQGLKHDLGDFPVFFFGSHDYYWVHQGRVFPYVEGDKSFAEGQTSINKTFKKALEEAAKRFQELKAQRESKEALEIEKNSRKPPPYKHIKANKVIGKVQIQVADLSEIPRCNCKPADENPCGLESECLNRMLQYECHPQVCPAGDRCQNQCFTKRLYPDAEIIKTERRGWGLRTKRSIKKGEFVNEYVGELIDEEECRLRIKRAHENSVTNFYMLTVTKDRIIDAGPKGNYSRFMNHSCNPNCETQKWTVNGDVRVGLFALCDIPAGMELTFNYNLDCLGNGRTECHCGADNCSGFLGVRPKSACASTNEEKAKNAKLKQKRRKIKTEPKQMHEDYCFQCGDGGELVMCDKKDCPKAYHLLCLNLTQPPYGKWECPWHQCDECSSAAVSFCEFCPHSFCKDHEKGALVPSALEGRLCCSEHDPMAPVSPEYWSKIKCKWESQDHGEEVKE
Briefly: Epigenetic enzyme assay, Methyltransferases (MTs). The note with it: Table 10; read-out: Reference IC50. The class given is biochemical.

The target in assay [7] is T6, KAT2A (GCN5L2) (h) bromodomain (Homo sapiens, UniProt Q92830).
T6 construct: Bromodomain
T6 sequence (Q92830 728-832 limits assumed): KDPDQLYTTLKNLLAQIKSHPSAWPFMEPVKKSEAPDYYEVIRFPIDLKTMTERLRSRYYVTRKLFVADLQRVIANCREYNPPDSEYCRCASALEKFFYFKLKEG
Briefly: Epigenetic binding assay, Bromodomain. As to conditions: Table 9, inhibition/concentration-response curve; read-out: IC50.

Assay [8] has as its target T7, TAF1(1) (h) bromodomain (Homo sapiens, UniProt P21675).
T7 construct: Bromodomain
T7 sequence (P21675 1397-1505 limits assumed): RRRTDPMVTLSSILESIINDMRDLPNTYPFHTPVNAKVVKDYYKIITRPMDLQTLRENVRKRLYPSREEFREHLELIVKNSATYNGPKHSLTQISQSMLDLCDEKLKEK
Briefly: Epigenetic binding assay, Bromodomain. As to conditions: Table 4; read-out: Reference IC50.

Assay [9] has as its target T8, TAF1(2)(h) bromodomain (Homo sapiens, UniProt P21675).
T8 construct: Bromodomain
T8 sequence (P21675 1519-1628 limits assumed): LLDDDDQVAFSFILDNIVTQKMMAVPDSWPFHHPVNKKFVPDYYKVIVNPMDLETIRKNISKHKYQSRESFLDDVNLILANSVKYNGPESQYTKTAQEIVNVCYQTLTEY
Briefly: Epigenetic binding assay, Bromodomain. The note with it: Table 4; read-out: Reference IC50.

Assay [10] has as its target USP 10 (h) (Homo sapiens, UniProt Q14694). Briefly: Epigenetic enzyme assay, Ubiquitin modifying enzymes. It is filed as biochemical. As to conditions: Table 10; read-out: Reference IC50.
The target in assay [11] is T9, SETD8 (h) (Homo sapiens, UniProt Q9NQR1).
T9 sequence (Q9NQR1 1-393): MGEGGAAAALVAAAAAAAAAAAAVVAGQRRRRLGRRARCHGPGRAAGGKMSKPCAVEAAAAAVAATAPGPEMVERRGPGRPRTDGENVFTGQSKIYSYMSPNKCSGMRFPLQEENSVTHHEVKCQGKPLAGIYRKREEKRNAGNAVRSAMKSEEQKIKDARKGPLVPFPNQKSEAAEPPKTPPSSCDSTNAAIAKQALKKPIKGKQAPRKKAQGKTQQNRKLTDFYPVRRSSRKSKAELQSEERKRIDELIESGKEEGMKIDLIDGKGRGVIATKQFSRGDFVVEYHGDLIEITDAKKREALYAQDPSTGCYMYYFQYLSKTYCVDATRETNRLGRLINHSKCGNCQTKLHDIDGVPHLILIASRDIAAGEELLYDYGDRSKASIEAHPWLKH
Briefly: Epigenetic enzyme assay, Methyltransferases (MTs). The class given is biochemical. As to conditions: Table 10; read-out: Reference IC50.

Assay [12] deals with USP 16 (h) (Homo sapiens, UniProt Q9Y5T5). Briefly: Epigenetic enzyme assay, Ubiquitin modifying enzymes. It is filed as biochemical. As to conditions: Table 10; read-out: Reference IC50.
USP 16 (h), sequence (Q9Y5T5 whole entry): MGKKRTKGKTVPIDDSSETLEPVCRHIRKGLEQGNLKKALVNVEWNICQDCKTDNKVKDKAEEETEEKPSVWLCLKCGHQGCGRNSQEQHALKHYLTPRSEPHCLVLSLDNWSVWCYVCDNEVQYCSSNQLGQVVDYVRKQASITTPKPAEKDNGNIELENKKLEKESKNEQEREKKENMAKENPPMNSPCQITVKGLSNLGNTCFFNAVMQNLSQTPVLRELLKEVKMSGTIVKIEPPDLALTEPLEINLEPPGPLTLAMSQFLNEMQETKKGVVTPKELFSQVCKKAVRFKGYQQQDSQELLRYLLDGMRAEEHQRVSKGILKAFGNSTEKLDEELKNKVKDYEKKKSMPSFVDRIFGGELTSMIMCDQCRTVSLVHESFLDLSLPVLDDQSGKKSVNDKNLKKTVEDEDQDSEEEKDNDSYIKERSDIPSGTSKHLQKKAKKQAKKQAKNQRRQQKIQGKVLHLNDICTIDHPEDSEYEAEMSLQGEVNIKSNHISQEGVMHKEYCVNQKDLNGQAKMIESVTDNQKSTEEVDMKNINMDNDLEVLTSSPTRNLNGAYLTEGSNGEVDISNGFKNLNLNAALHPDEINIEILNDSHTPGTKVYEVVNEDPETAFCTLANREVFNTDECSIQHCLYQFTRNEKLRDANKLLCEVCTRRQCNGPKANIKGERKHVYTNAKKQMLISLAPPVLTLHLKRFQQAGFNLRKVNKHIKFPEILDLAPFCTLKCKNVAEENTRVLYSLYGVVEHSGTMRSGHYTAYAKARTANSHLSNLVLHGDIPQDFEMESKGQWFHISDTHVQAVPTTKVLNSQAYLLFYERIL
The target of assay [13] is NSD1 (h) (Homo sapiens, UniProt Q96L73). The assay can be described thus: Epigenetic enzyme assay, Methyltransferases (MTs). The class given is biochemical.
NSD1 (h), sequence (Q96L73 whole entry): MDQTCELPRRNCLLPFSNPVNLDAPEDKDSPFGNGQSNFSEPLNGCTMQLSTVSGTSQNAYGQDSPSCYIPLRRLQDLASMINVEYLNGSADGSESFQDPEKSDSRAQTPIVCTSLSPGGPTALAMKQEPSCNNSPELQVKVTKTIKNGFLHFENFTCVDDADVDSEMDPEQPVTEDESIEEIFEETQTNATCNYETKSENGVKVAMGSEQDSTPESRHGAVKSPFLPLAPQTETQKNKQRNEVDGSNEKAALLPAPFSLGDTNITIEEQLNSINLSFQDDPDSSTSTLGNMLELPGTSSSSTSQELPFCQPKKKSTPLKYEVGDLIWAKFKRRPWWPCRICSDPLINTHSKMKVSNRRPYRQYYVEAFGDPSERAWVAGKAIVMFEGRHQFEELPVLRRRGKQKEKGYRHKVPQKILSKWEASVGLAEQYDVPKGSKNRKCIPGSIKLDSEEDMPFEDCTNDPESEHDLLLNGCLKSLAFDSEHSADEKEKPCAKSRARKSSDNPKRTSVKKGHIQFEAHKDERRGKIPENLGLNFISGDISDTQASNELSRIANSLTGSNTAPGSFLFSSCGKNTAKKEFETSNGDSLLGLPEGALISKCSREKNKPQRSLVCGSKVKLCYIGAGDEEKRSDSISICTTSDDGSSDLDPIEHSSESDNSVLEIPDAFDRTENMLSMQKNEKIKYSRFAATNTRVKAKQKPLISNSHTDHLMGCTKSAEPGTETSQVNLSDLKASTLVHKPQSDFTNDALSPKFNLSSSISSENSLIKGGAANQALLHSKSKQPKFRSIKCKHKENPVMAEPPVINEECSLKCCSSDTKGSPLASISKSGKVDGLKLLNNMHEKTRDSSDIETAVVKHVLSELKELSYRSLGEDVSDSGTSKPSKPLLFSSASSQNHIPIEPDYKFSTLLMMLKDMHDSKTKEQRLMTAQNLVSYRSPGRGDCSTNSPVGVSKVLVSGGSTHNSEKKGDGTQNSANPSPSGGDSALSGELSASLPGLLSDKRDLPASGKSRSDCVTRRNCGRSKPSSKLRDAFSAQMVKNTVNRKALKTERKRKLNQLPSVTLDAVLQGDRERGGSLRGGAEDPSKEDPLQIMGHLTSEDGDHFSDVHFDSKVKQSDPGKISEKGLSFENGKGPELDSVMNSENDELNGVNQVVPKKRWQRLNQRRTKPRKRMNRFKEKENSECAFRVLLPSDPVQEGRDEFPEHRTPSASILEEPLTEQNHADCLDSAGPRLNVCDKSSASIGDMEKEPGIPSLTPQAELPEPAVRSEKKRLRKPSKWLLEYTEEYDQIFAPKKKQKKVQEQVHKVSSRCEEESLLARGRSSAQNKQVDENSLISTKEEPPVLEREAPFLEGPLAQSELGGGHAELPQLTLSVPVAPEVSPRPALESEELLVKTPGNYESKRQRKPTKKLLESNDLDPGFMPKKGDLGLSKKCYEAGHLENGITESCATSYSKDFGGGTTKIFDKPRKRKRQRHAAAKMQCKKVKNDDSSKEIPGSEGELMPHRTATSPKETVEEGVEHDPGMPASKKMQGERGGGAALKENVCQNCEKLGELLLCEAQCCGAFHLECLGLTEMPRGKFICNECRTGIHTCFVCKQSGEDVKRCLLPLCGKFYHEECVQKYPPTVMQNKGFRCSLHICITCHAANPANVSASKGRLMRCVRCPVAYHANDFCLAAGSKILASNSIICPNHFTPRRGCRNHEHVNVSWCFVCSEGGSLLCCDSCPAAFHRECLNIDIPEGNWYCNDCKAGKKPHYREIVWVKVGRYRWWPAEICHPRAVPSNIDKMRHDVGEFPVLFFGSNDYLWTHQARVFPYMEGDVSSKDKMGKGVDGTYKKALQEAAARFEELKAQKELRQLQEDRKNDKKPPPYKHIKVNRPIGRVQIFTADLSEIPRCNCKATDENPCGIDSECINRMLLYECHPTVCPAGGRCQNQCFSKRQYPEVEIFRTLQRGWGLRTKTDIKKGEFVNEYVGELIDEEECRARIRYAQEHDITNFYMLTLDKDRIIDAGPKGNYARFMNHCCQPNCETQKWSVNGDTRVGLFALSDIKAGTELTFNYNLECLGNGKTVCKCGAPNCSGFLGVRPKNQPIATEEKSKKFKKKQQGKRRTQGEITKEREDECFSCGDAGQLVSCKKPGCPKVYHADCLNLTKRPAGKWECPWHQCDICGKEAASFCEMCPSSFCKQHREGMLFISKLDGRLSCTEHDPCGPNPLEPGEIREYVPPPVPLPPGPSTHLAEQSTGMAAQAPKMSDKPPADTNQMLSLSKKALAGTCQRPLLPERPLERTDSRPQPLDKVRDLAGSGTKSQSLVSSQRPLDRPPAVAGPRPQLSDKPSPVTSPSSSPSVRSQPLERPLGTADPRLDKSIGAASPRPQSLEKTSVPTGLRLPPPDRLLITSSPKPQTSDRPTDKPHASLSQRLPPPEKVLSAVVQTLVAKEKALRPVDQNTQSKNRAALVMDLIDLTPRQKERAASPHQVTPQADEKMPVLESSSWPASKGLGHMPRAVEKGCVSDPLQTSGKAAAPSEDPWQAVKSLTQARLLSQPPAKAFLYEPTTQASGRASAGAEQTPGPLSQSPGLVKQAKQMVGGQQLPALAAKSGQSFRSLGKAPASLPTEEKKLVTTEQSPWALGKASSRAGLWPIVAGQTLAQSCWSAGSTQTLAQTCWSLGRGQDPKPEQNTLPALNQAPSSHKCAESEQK
For assay [14], the target named is T10, WHSC1(h) (NSD2(h)) (Homo sapiens, UniProt O96028).
T10 sequence (O96028 1-1365): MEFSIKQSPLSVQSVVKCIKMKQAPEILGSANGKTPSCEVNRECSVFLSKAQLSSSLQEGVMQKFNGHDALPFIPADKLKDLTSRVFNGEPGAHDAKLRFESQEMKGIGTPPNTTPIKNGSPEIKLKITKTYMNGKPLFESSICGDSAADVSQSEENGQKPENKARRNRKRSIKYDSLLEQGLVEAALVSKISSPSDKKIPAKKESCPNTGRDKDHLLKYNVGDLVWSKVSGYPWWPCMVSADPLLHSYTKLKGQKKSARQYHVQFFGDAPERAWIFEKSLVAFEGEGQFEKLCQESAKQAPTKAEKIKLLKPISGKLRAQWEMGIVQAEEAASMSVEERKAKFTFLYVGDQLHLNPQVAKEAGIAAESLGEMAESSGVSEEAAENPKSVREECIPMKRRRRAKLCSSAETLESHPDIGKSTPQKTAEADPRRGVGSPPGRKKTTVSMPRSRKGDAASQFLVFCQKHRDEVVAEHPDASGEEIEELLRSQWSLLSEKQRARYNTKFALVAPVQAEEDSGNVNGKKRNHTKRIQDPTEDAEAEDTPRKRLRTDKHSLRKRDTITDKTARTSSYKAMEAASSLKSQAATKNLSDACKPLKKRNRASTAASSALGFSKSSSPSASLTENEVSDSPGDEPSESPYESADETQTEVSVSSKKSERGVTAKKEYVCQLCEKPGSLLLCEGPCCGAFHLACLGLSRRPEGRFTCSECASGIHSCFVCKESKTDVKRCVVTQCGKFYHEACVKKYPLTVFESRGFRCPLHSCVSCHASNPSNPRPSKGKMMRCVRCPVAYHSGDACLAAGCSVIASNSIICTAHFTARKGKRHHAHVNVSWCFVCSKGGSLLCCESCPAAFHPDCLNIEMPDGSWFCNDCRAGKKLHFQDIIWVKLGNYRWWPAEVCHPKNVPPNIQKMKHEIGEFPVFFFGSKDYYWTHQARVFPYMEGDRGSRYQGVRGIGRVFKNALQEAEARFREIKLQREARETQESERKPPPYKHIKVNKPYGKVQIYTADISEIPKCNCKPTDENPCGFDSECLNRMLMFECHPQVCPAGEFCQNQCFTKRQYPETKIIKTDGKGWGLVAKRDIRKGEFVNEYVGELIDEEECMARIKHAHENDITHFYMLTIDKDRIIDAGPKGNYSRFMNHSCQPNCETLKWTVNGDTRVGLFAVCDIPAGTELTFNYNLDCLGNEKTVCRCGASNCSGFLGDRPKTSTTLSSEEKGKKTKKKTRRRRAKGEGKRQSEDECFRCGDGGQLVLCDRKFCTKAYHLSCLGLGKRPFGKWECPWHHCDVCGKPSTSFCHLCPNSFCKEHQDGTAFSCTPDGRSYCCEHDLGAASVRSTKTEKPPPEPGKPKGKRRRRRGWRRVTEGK
Briefly: Epigenetic enzyme assay, Methyltransferases (MTs). As to conditions: Table 10; read-out: Reference IC50. The class given is biochemical.

USP 10 (h), sequence (Q14694 whole entry): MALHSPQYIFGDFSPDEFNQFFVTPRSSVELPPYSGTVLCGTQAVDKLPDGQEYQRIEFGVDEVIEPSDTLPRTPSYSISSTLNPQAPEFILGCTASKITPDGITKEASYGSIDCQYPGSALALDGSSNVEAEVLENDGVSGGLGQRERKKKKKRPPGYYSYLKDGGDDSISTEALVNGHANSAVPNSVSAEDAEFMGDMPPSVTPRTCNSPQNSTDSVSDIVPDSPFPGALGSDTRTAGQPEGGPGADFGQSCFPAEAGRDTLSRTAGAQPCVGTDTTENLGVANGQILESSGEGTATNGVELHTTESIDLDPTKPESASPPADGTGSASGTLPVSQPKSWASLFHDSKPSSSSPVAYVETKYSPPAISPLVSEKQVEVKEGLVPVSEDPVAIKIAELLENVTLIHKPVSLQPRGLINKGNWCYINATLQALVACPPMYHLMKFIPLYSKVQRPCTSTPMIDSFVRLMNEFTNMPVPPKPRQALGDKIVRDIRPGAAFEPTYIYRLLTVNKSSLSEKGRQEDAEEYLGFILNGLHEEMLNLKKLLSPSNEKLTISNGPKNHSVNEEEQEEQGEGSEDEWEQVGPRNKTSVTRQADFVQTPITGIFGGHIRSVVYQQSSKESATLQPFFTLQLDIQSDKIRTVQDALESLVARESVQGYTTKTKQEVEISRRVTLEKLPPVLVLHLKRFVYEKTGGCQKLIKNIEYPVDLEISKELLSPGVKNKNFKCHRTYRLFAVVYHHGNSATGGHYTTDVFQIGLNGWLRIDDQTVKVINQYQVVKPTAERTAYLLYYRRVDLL
T3 sequence (Q86U86 518-625 limits assumed): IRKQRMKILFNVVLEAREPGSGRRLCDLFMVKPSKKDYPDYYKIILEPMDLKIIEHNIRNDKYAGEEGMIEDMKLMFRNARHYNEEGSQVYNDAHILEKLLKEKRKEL

As to `CCC(=O)N1CCOc2c(cc(-c3ccc(OC)c(OC)c3)cc2OC[C@H]2CCCN(C)C2)C1` [I-CBP112, reference compound], the pIC50 in [1] is 4.61.
Consider `CCCOC(=O)c1cc(O)c(O)c(O)c1` [N-Propyl Gallate, reference compound], for which the pIC50 in [2] was 3.69.
In the case of `Cc1cc(/N=N/c2cc(S(=O)(=O)O)c(C)cc2C)c(N)cc1O` [Ischemin sodium salt, reference compound], the pIC50 was 4.12 in [3] and 5.17 in assay [4].
Take `Cc1ccc(C(=O)Nc2ccc(S(=O)(=O)O)c3cc(S(=O)(=O)O)cc(S(=O)(=O)O)c23)cc1NC(=O)c1cccc(NC(=O)Nc2cccc(C(=O)Nc3cc(C(=O)Nc4ccc(S(=O)(=O)O)c5cc(S(=O)(=O)O)cc(S(=O)(=O)O)c45)ccc3C)c2)c1` [suramin, reference compound]: the pIC50 was 4.68 in assay [5] and 5.82 in [6].
Consider `CCCOc1ccn2c(C(C)=O)cc(-c3ccccc3S(C)(=O)=O)c2c1` [GSK2801, reference compound], for which the pIC50 is 5.00 in assay [7], 5.36 in assay [8] and 5.00 in assay [9].
Take `CN1C(=O)C=CC1=O` [N-Methylmaleimide, reference compound]: the pIC50 in [10] is 3.00.
As for `O=C([O-])c1ccccc1-c1c2cc(Br)c(=O)cc-2oc2[c]([Hg+])c([O-])c(Br)cc12.[Na+].[Na+].[OH-]` [mercurochrome, reference compound], the pIC50 in assay [11] is 5.62.
`NC(=O)CI` [Iodoacetamide, reference compound]: the pIC50 in [12] is 5.46.
For `CN1C(=O)[C@@]23C[C@]4([C@]56C[C@@]78SS[C@@](CO)(C(=O)N7[C@H]5Nc5ccccc56)N(C)C8=O)c5ccccc5N[C@@H]4N2C(=O)[C@]1(CO)SS3` [chaetocin, reference compound], the pIC50 was 6.89 in assay [13] (Table 10, read-out: Reference IC50); 6.62 in [13] (Table 11, inhibition/concentration-response curve, read-out: IC50); 6.32 in assay [14].
